In brackets after ≈: the same amount, converted by molar mass.
Experiments:
Format in all cases: physicochemical
[1] = Solubility C in n-decane at 5° C. (saturated solution, absorbance); settings: for solubility at 24 h: organic solvent or mixture, thermodynamic from solid, saturation solubility in n-decane at 5° C.; for ε · C / εC: product of ε and solubility C in n-decane at 5° C.; for C: solubility in n-decane at 5° C.
Description: <Method for Measurement of Solubility C>
The solubility C of Example Compounds 1 to 4 and Comparative Example Compound in n-decane solution was measured as follows.
The compound was added to the solvent until the undissolved residue remained, and ultrasonically treated at 30° C. for 30 minutes. After left at 5° C. for 24 hours, this was centrifuged and filtered through a 0.1 μm-filter using an ultracompact centrifuge (centrifugal force, 5200×g). The resultant saturated solution was diluted to have a suitable concentration, and using a quartz cell having an optical length of 10 mm, the absorption spectrum thereof was measured with Hitachi Spectrophotometer U-4100. From the relationship between the absorbance at the absorption maximum wavelength λmax (nm) and the previously-determined molar absorbance coefficient ε([…]) thereof, the concentration of each compound was determined, and the solubility C (mol·L^−1) at 5° C. and εC (cm^−1) thereof were calculated.

[2] = Absorption spectrum of n-decane solution (absorption maximum wavelength, molar absorbance coefficient, color); settings: for Maximum Absorption Wavelength: 1 mg in 100 ml n-decane, quartz cell; for Color Tone: color of the solution of the compound in n-decane; for ε (molar absorbance coefficient) / ε / λmax: n-decane solution; for ε (molar absorbance coefficient): at absorption maximum wavelength; for ε / λmax: same manner as for Example Compound 1
Description: <Method for Measurement of Absorption Maximum Wavelength λMax, Molar Absorbance Coefficient ε>
One mg of each of Example Compounds 1 to 4 and Comparative Example Compound was dissolved in 100 ml of n-decane solution to prepare a solution thereof, and using a quartz cell, the absorption spectrum thereof was measured with Hitachi Spectrophotometer U-4100. The resultant spectrum of the compound gave the absorption maximum wavelength λmax (nm) and the molar absorbance coefficient ε(L·mol^−1·cm^−1) thereof.

[3] = Solubility of solvent in water; settings: pure water, thermodynamic from solid, 25° C.
Description: (§1) The solvent was sandwiched between opposed parallel-plate ITO electrode-attached glass substrates having an electrode spacing of 50 μm, and using LCR Meter ZN2371 (manufactured by NF Corporation), the equivalent parallel capacitance thereof was measured at a measurement temperature of 22° C. and at a frequency of 1 kHz, given a test signal voltage of 5 V. Through calculation according to the following equation, the relative permittivity of the solvent was determined. Relative Permittivity=(equivalent parallel capacitance)×(electrode spacing)/(electrode area)/vacuum permittivity(ε0) <Method for Measurement of Solubility of Solvent in Water>
30 g of pure water and 8 g of the solvent were put into a 110 ml-vial, and shaken in a thermostat bath at 25° C. at 200 shake/min for 4 hours. After thus shaken, the liquid was centrifuged (6000×g, 5 minutes), the aqueous layer was sampled, and the concentration of the dissolved solvent was quantified through gas chromatography.
For a mixed solvent comprising two or more different types of solvents, the solubility in water was determined by multiplying the solubility in water of each solvent constituting the mixed solvent by the molar fraction of each solvent, followed by totaling the resultant data. […]

[4] = Relative permittivity of solvent; settings: 22° C., measurement frequency 1 kHz
Description: as §1, with “<Method for Measurement of Relative Permittivity of Solvent> The” for “The”

SMILES	solubility at 24 h [1] [mM]	ε · C [1]	Maximum Absorption Wavelength [2] [nm]	Color Tone [2]	ε (molar absorbance coefficient) [2]	εC [1] [cm⁻¹]	C [1] [mol/L]	ε [2] [L/mol/cm]	λmax [2] [nm]	solubility at 4 h [3] [µg/mL]	relative permittivity [4]
CCCCC(CC)COC(=O)c1cc(C#N)c(N=Nc2ccc(N(CC(CC)CCCC)CC(CC)CCCC)cc2NC(=O)CC)c(C#N)c1 (stereo not drawn) [Example Compound 2]	160 (≈ 112 mg/mL)	13,000 cm^−1	591	violet	80,000 L · mol^−1 · cm^−1	–	–	–	–	–	–
CCCCC(CC)CN(CC(CC)CCCC)c1ccc(N=Nc2c(C#N)cc(C(F)(F)F)cc2C#N)c(NC(C)=O)c1 (stereo not drawn) [Example Compound 1]	20 (≈ 11.9 mg/mL)	1,600 cm^−1	584	violet	80,000 L · mol^−1 · cm^−1	–	–	–	–	–	–
C=CCn1c(N=Nc2ccc(N(CCC)CCC)cc2NC(C)=O)nc(C#N)c1C#N [Comparative Example Compound, reference compound]	≤ 0.01	10 or less cm^−1	512	red	34,000 L · mol^−1 · cm^−1	–	–	–	–	–	–
CCCCC(CC)CNc1ccc(NCC(CC)CCCC)c2c1C(=O)c1ccc(C(=O)OCC(C)C)cc1C2=O (stereo not drawn) [Blue Compound A, reference compound]	–	–	–	–	–	3200	0.170	19000	668	–	–

Next, values leading:

solubility at 24 h [1] [mM]	ε · C [1]	Maximum Absorption Wavelength [2] [nm]	Color Tone [2]	ε (molar absorbance coefficient) [2]	εC [1] [cm⁻¹]	C [1] [mol/L]	ε [2] [L/mol/cm]	λmax [2] [nm]	solubility at 4 h [3] [µg/mL]	relative permittivity [4]	SMILES
350 (≈ 224 mg/mL)	26,000 cm^−1	585	violet	75,000 L · mol^−1 · cm^−1	–	–	–	–	–	–	CCCCC(=O)Nc1cc(N(CC(CC)CCCC)CC(CC)CCCC)ccc1N=Nc1c(C#N)cc(C(F)(F)F)cc1C#N (stereo not drawn) [Example Compound 3]
–	–	–	–	–	3900	0.086	4600	530	–	–	CCCCC(CC)CN(CC(CC)CCCC)c1ccc(N=Nc2snc(CC)c2C#N)c(C)c1 (stereo not drawn) [Red Compound A]
75 (≈ 51.4 mg/mL)	6,000 cm^−1	590	violet	80,000 L · mol^−1 · cm^−1	–	–	–	–	–	–	CCCCC(CC)COC(=O)c1cc(C#N)c(N=Nc2ccc(N(CC(CC)CCCC)CC(CC)CCCC)cc2NC(C)=O)c(C#N)c1 (stereo not drawn) [Example Compound 4]
–	–	–	–	–	–	–	–	–	≤ 1	2.0	CCCCCCCCCC [n-decane]
–	–	–	–	–	1900	0.076	25000	417	–	–	CCCCc1nn(C(C)(C)C)c(O)c1N=Nc1ccc(N=Nc2ccccc2)cc1 [Yellow Compound A, reference compound]

— US9732226B2, “Azo compound, ink containing azo compound, and display and electronic paper containing the ink” (MITSUBISHI CHEMICAL CORPORATION, priority 2012, dated 2017)
